Results reported in US11638718B2, “Treatment of alphavirus-induced inflammation” (priority 2016, dated 2023).
Marks after values point to notes of the source that are not given here.

Experiments:
alphavirus = settings: earlier studies by the group (refs 30, 55-57); cited from earlier work
Ross River virus (RRV) [1] = assay: RRV-induced disease in mice: clinical score and weight; assay type: in vivo, C57BL/6 mice; settings: RRV-infected mice, PPS 3 mg/kg i.p. daily vs vehicle
Ross River virus (RRV) [2] = assay: RRV viral load: plaque assay on Vero cells and nsP3 qPCR; assay type: in vivo, C57BL/6 mice
[3] = tested on: chikungunya virus (CHIKV); assay: CHIKV-induced footpad swelling and joint histology in mice; assay type: in vivo, C57BL/6 mice
[4] = tested on: chikungunya virus (CHIKV); assay: CHIKV viral load: plaque assay on Vero cells and E2 qPCR; assay type: in vivo, C57BL/6 mice; settings: CHIKV-infected, days 1, 3 and 7 p.i.
[5] = humans, periods greater than 12 months (ref 53); cited from earlier work
[6] = tested on: chikungunya virus (CHIKV); assay: Serum soluble factors by multiplex, CHIKV-infected mice
Ross River virus (RRV) [7] = assay: Serum soluble factors by multiplex bead array, RRV-infected mice
Ross River virus (RRV) [8] = assay: H&E histology of quadriceps muscle and joint inflammation, RRV-infected mice
[9] = tested on: cartilage matrix genes in joint tissues of RRV-infected mice; assay: Real-time PCR of cartilage matrix genes in joint tissues, acute RRV infection
Ross River virus (RRV) [10] = assay: Detection of leukocyte infiltrates in quadriceps by flow cytometry, RRV-infected mice
Ross River virus (RRV) [11] = assay: Long-term oral PPS treatment of RRV-infected mice: clinical signs, joint gene expression
Ross River virus (RRV) [12] = assay: Masson's trichrome and Safranin O/Fast Green histology of muscle, cartilage and epiphyseal plate, RRV-infected mice; settings: day 10 p.i.
[13] = peak disease (day 10 p.i.), not at the early stages
[14] = RRV + PPS, long-term oral treatment, joint tissue
[15] = long-term oral PPS, RRV-infected

Enbrel
effect on alphavirus disease (alphavirus): suppress the antiviral response and enhance viral replication thereby worsen disease

pentosan polysulfate [PPS]
decrease in clinical disease score (Ross River virus (RRV) [1]): 65% | disease-associated weight loss (Ross River virus (RRV) [1]): protection from disease-associated weight loss | viral titres in serum (Ross River virus (RRV) [2]; PPS-treated vs mock-treated, all days tested, plaque assay): comparable | RRV titres in quadriceps muscles (Ross River virus (RRV) [2]; PPS-treated vs mock-treated, plaque assay): comparable | RRV titres in ankle tissues (Ross River virus (RRV) [2]; day 3 p.i., plaque assay): slight reduction | RRV titres in ankle tissues (Ross River virus (RRV) [2]; day 7 p.i., plaque assay): comparable | RRV RNA in joint tissue (qPCR), difference to mock-treated (Ross River virus (RRV) [2]; day 10 p.i.): not statistically significant | RRV titres in ankle tissues (Ross River virus (RRV) [2]; day 10 p.i., plaque assay, vs mock-treated): elevated | joint (footpad) swelling ([3]; CHIKV-infected mice, PPS 3 mg/kg i.p. daily): decreased the level of joint swelling | inflammatory cells infiltrating into the joint (H&E) ([3]; CHIKV-infected, peak swelling 3 days p.i.): reduction in inflammatory cells infiltrating into the joint | kinetics of virus infection (plaque assay) [4]: did not affect the kinetics of virus infection | tolerability of long-term clinical use [5]: extremely well tolerated | serum IL-10 ([6]; early): early surge | serum CCL-2 ([6]; peak disease (day 3 p.i.)): reduced the levels | serum G-CSF ([6]; peak disease (day 3 p.i.)): reduced the levels | serum IL-6 ([6]; peak disease (day 3 p.i.)): reduced the levels | serum IL-9 ([6]; peak disease (day 3 p.i.)): reduced the levels | serum IL-10 (Ross River virus (RRV) [7]; day 1 p.i.): significantly elevated | serum chemo-attractants factors (Ross River virus (RRV) [7]; day 1 p.i.): increased levels | serum IL-10 (Ross River virus (RRV) [7]; day 3 p.i.): significantly elevated | serum CCL-2 (Ross River virus (RRV) [7]; peak disease (day 10 p.i.)): significantly reduced | serum IL-1α (Ross River virus (RRV) [7]; peak disease (day 10 p.i.)): significantly reduced | serum IL-2 (Ross River virus (RRV) [7]; peak disease (day 10 p.i.)): significantly reduced | serum IL-6 (Ross River virus (RRV) [7]; peak disease (day 10 p.i.)): significantly reduced | serum MIP-1α (Ross River virus (RRV) [7]; peak disease (day 10 p.i.)): significantly reduced | infiltrating cells in muscle and joint tissues (H&E) (Ross River virus (RRV) [8]; RRV-infected, PPS 3 mg/kg i.p. daily, day 7 and 10 p.i.): markedly reduced numbers of infiltrating cells | inflammation in quadriceps muscle or ankle joint (Ross River virus (RRV) [8]; mock-infected PPS-treated mice): No inflammation was observed | BMP-1 expression ([9]; RRV-infected, PPS 3 mg/kg i.p.): unaffected | TGF-β1 expression ([9]; RRV-infected, PPS 3 mg/kg i.p.): unaffected | aggrecan expression increase caused by RRV ([9]; RRV-infected, PPS 3 mg/kg i.p.): largely reduced | collagen I expression increase caused by RRV ([9]; RRV-infected, PPS 3 mg/kg i.p.): largely reduced | collagen II expression increase caused by RRV ([9]; RRV-infected, PPS 3 mg/kg i.p.): largely reduced | metalloproteinases expression ([9]; RRV-infected, PPS 3 mg/kg i.p.): unaffected | early expression of aggrecan ([9]; early time points p.i.): significantly reduced | early expression of collagen II ([9]; early time points p.i.): significantly reduced | ADAMTS-5 expression in joint tissue [9, 13]: significantly reduced | TIMP-3 expression in joint tissue [9, 13]: significantly reduced | NK cell population in quadriceps (Ross River virus (RRV) [10]; day 7 p.i.): reductions | T cell population in quadriceps (Ross River virus (RRV) [10]; day 7 p.i.): reductions | monocyte population in quadriceps (Ross River virus (RRV) [10]; day 7 p.i.): reductions | numbers of CD45+ infiltrating leukocytes in quadriceps (Ross River virus (RRV) [10]; day 7 p.i.): uniformly reduced | NK cell population in quadriceps (Ross River virus (RRV) [10]; day 10 p.i.): decrease | T cell population in quadriceps (Ross River virus (RRV) [10]; day 10 p.i.): decrease | percentage of NK cells in quadriceps (NK cell to total cell ratio) (Ross River virus (RRV) [10]; day 10 p.i., data not shown): reduction in the overall percentage of NK cells | Fold Change ADAMTS-4 (Ross River virus (RRV) [11]; [14]): 0.1689** | Fold Change ADAMTS-5 (Ross River virus (RRV) [11]; [14]): 0.8305 | Fold Change Aggrecan (Ross River virus (RRV) [11]; [14]): 0.6105*** | Fold Change BMP-1 (Ross River virus (RRV) [11]; [14]): 1.4697 | Fold Change Collagen I (Ross River virus (RRV) [11]; [14]): 0.4014 | Fold Change Collagen II (Ross River virus (RRV) [11]; [14]): 0.1719 | Fold Change MMP-3 (Ross River virus (RRV) [11]; [14]): 2.5028 | Fold Change MMP-9 (Ross River virus (RRV) [11]; [14]): 0.8604 | Fold Change TGF-β1 (Ross River virus (RRV) [11]; [14]): 0.4010 | Fold Change TIMP-3 (Ross River virus (RRV) [11]; [14]): 0.6328 | ADAMTS-4 expression (Ross River virus (RRV) [11]; [15]): reduced | expression of aggrecan (Ross River virus (RRV) [11]; [15]): back to base-line levels | joint damage (Ross River virus (RRV) [11]; [15]): less joint damage | adverse clinical signs (Ross River virus (RRV) [11]; oral PPS in drinking water 100 mg/L (25 mg/kg/day), 3-month duration): no adverse clinical signs | chondrocyte morphology (Ross River virus (RRV) [12]): maintaining chondrocyte morphology | epiphyseal plate thickness (Ross River virus (RRV) [12]): prevented RRV-induced thinning of the epiphyseal plate | loss of articular cartilage (Ross River virus (RRV) [12]): preventing the loss of articular cartilage | proteoglycan matrix of articular cartilage (Safranin O/Fast Green, knee joint) (Ross River virus (RRV) [12]): protected the proteoglycan matrix of the articular cartilage | skeletal muscle morphology (tibialis anterior, Masson's trichrome) (Ross River virus (RRV) [12]): protected the morphology of striations within the skeletal muscle
